Molecules are shown by their SMILES.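 Five compound concentrations were applied to cells in 96-well plates for 48 hours; endpoints were derived by simple linear interpolation of the resulting dose-response curve. GI50 = concentration required for 50% inhibition of growth.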 Activity calls are given as the source filed them. No stated cut-off is given here; in the data, active = GI50 up to about 1.1 µM and inactive = higher. A value given as a limit tells only on which side of the number the result lay.

Some test systems named below: ACHN; HCT-116; SF-295; SNB-78; HCT-15; KM12; BT-549; SK-MEL-2; Hs-578T; NCI-H23; OVCAR-8; RXF 393; SK-MEL-28; NCI/ADR-RES; T47D; DMS-114; PC-3; HL-60; SF-539; OVCAR-5.
Common to all, as to experiment: growth of human tumour cells (NCI), 48 h

As for `CC(/C=N/N=C(N)N)=N\N=C(N)N`, the GI50 with ACHN was 22800 nM (inactive); with HCT-116 it was 6410 nM (inactive); in the assay with SF-295, 92300 nM (inactive); in the assay with SNB-78, 13600 nM (inactive); in the assay on HCT-15 it was 94000 nM; in the assay on KM12, 2830 nM (inactive). Besides, the GI50 in the assay with BT-549 is 243000 nM (inactive); in the assay on SK-MEL-2, 12800 nM (inactive); in the assay with Hs-578T it was 33200 nM (inactive); with NCI-H23, 18500 nM (inactive); in the assay on OVCAR-8, 4550 nM (inactive); in the assay on RXF 393, 32300 nM (inactive). Moreover, the GI50 with SK-MEL-28 is 64600 nM (inactive); with NCI/ADR-RES, 4150 nM (inactive); in the assay on T47D it was 1910 nM (inactive); in the assay with DMS-114 it was 16800 nM (inactive); with PC-3, 232000 nM (inactive); in the assay on HL-60, 7240 nM (inactive). Moreover, in the assay on SF-539, the GI50 is 8040 nM (inactive).
Consider `Cc1c2c(cc3c1[nH]c1ccccc13)C(c1ccc(F)cc1)=NCC2`, for which the GI50 was 752 nM (active) in the assay on HCT-116; 869 nM (active) with SF-295; 1810 nM (inactive) in the assay on SNB-78; 904 nM with HCT-15; 869 nM (active) in the assay with KM12; 1210 nM (inactive) in the assay on SK-MEL-2. Also, the GI50 is 1740 nM (inactive) in the assay on OVCAR-5; 1150 nM (inactive) in the assay with NCI-H23; 1810 nM (inactive) in the assay on OVCAR-8; 1420 nM (inactive) in the assay on RXF 393; 1480 nM (inactive) with SK-MEL-28; 774 nM (active) in the assay on NCI/ADR-RES. The values for the GI50 with DMS-114, in the assay with HL-60 and with SF-539 were 746 nM (active), 358 nM (active) and 1130 nM (inactive), respectively.
Take `COC1C(O)CC(OC2CC(Oc3cc4cc5c(c(O)c4c(O)c3C)C(=O)[C@@H](OC3CC(OC4CC(OC6CC(C)(O)C(OC(C)=O)C(C)O6)C(O)C(C)O4)C(O)C(C)O3)[C@H]([C@H](OC)C(=O)[C@@H](O)[C@@H](C)O)C5)OC(C)C2OC(C)=O)OC1C` (some centres undefined) [CHROMOMYCIN]: the GI50 with ACHN was 0.0471 nM (active); in the assay on HCT-116, 3.33 nM (active); in the assay on SF-295, 13.9 nM (active); in the assay on SNB-78 it was 3.37 nM (active); in the assay with HCT-15, 13.8 nM; in the assay with KM12 it was < 10 nM (active). In addition, the GI50 is 0.0149 nM (active) in the assay with BT-549; 3.61 nM (active) in the assay on SK-MEL-2; < 10 nM (active) in the assay with OVCAR-5; 0.0213 nM (active) in the assay with Hs-578T; < 10 nM (active) with NCI-H23; < 10 nM (active) in the assay on OVCAR-8. Also, the GI50 was 3.11 nM (active) in the assay with RXF 393; 3.68 nM (active) in the assay on SK-MEL-28; 750 nM (active) in the assay with NCI/ADR-RES; < 10 nM (active) with T47D; 0.0214 nM (active) in the assay with DMS-114; 0.0357 nM (active) with PC-3. The GI50 with HL-60 was 12.7 nM (active); with SF-539 it was 3.26 nM (active).

These data come from ChEMBL document CHEMBL1201862, “PubChem BioAssay data set” (2004).
